Assay results taken from PMC8657773, “Development of a PROTAC-Based Targeting Strategy Provides a Mechanistically Unique Mode of Anti-Cytomegalovirus Activity” (International Journal of Molecular Sciences, 2021).
Read-outs that look alike come from different tables or passages of the source.

Assays:
[1] = test system: SARS-CoV-2 d6-YFP; set-up: method as in PMID 34578109; details: human Caco-2 cells, previously demonstrated; ref [41]; cited from earlier work
[2] = test system: HCMV AD169-GFP; set-up: method as in PMID 30452929, PMID 25624324; details: anti-HCMV, preceding determination; ref [22],[26]; cited from earlier work
[3] = test system: HCMV AD169-GFP; experiment: microbe, parasite or virus in culture; type: cell-based, Human cytomegalovirus; details: Human betaherpesvirus 5, AD169

Structure (SMILES) | impairment of SARS-CoV-2 replication [1] | EC50 [2] | EC50 [3]
CC(C)c1cnn2c(NCc3ccccc3-n3cccn3)nc(OC3CCCNC3)nc12 (stereo not shown) [LDC4297] | inactive | 30 nM | 
O=C1Cc2c([nH]c3ccc([N+](=O)[O-])cc23)-c2ccccc2N1 [R25/alsterpaullone, alsterpaullone] | effective |  | 
Cc1c(Br)c(Br)c2c3c1nc(N1CCNCC1)n3CCC2 [SEL120] |  |  | 120 ± 70 nM
